For series [1], the system named is naive mice. The format is in vivo, mouse. The protocol:
Behavioral Assessment for Scratching (Itch) and Wiping (Pain). Mice were shaved on the cheek or nape after a brief anesthesia with isoflurane. Before experiments, mice were habituated in small plastic chambers (14×18×12 cm) daily for two days. The room temperature and humidity remained stable for all the experiments. […] After the injection, the number of scratches in 60 min was counted. A scratch was counted when a mouse lifted its hind paw to scratch the shaved region and returned the paw to the floor or to the mouth. A bout of wiping was defined as a continuous wiping movement with a forepaw directing at the area of the injection area (Shimada and LaMotte, Pain 2008, 139, 681-687). Scratching and wiping behavior was videoed for 30 min or 60 min using Sony HDR-CX610 camera. The video was subsequently played back offline and the numbers of scratches and wipes were quantified in a blinded manner.

For series [2], the system named is mice. The series can be described thus: Evans blue extravasation, neurogenic inflammation in a hind paw. Type of series: in vivo, mouse. Particulars: intraplantar, 10 μL; capsaicin 1 mM, AITC 5 mM, miR-711 1 mM. As to the method:
Evans Blue Extravasation. To examine neurogenic inflammation in a hind paw (Han et al., Neuron 2016, 92, 1279-1293), mice were anesthetized with 5% isoflurane. Evans blue (50 mg/kg body weight) was given intravenously 10 min before neurogenic irritant application. […] Evans blue was extracted from the tissues by incubation in 400 μL formamide at 37° C. for 48 hr. Evans blue was quantified by measuring the optical density of the formamide extract at 620 nm. Absorbance was normalized to per gram of tissue weight.

The subject of series [3] is TG neurons. The series can be described thus: Calcium imaging in TG neurons of Pirt-GCaMP3 mice. The format is cell-based, mouse. Particulars: histamine 500 μM, CQ 1000 μM, AITC 200 μM; for TG neurons responding (calcium): miR-711 50 μM, 204 neurons. The protocol: Primary Cultures of Mouse and Human Sensory Neurons. […] Cells were mechanically dissociated with a flame polished Pasteur pipette in the presence of 0.05% DNase I (Sigma).
Ca^2+ Imaging. […] The imaging buffer includes 140 mM NaCl, 10 mM D-(+)-Glucose, 1 mM MgCl2, 2 mM CaCl2, 5 mM KCl, 10 mM HEPES, pH=7.4, osmolarity=320 mOsm/L. Calcium signals were measured using green emitted light in a 3 s interval. Ca ^2+ signal amplitudes were presented as ΔF/F0=(Ft−F0)/F0 as ratio of fluorescence difference (Ft−F0) to basal value (F0). The average fluorescence intensity in the baseline period was taken as F0. Ca ^2+ imaging was also analyzed in HEK293-TRPA1 cell line after loading cells with […] fura2-AM (Invitrogen) for 40 min in the Ca^2+ imaging buffer. Ca^2+ imaging protocol was a ratio metric method with 340/380-nm wavelength light for dual excitation. Data were presented as ΔR/R0, determined as the fraction ΔR (Rt−R0) of the increase of a given ratio over baseline ratio (R0).

The target in series [4] is hTRPA1 (Homo sapiens, UniProt O75762). The series can be described thus: Outside-out patch recordings, single channel activity, hTRPA1-expressing HEK293 cells. Type of series: cell-based. The protocol:
Inside-Out and Outside-Out Patch Clamp Recordings on HEK293 Cells. For inside-out recordings in TRPA1-expressing HEK293 cells, pipette resistance was 8-10 MΩ and, the internal solution contains: 126 mM K-gluconate, 10 mM NaCl, 1 mM MgCl2, 10 mM EGTA, 10 mM HEPES, and 2 Na-ATP (adjusted to pH 7.3 with KOH, osmolarity to 295-300 mOsm). The recordings were performed at room temperature in a bath solution (intracellular side) of 140 mM NaCl, 10 mM EGTA, 5 mM KCl, 2 mM CaCl2, 1 mM MgCl2, 10 mM HEPES, 10 mM glucose, adjusted to pH 7.4 with NaOH and osmolarity to 300-310 mOsm (Park et al., Neuron 2014, 82, 47-54). For comparison, outside-out recordings were also performed in TRPA1-expressing HEK293 cells in an extracellular solution of 140 mM NaCl, 5 mM KCl, 2 mM MgCl2, 10 mM HEPES, and 10 mM glucose (adjusted to pH 7.4 with NaOH and osmolarity to 300-310 mOsm). The internal solution contains 140 mM CsCl, 10 mM EGTA, 10 mM HEPES, and mM 2 Mg-ATP, adjusted to pH 7.3 with CsOH. Currents were low-pass filtered at 2 kHz and digitized at a sampling rate of 10 kHz with Digidata-1440A (Axon Instruments). The pClamp10 (Axon Instruments) software was used during experiments and data analysis. Opening and closing transitions of single channels were detected by using 50% of the threshold criterion. All events were carefully checked before the analysis. When superimposed openings were observed, the number of channels in the patch was estimated from the maximal number of superimposed openings. The single-channel open probability (Po) was determined using the following equation: Po=T′/T, where T′ is the total open time for a patch over time T.

Where [5] appears, read: high concentrations, 5 and 10 mM, 5 μL.
Where [6] appears, read: low concentrations, 10 and 100 μM.

Where two headings read alike, the source gives them in different places.

hTRPA1, sequence (O75762 whole entry): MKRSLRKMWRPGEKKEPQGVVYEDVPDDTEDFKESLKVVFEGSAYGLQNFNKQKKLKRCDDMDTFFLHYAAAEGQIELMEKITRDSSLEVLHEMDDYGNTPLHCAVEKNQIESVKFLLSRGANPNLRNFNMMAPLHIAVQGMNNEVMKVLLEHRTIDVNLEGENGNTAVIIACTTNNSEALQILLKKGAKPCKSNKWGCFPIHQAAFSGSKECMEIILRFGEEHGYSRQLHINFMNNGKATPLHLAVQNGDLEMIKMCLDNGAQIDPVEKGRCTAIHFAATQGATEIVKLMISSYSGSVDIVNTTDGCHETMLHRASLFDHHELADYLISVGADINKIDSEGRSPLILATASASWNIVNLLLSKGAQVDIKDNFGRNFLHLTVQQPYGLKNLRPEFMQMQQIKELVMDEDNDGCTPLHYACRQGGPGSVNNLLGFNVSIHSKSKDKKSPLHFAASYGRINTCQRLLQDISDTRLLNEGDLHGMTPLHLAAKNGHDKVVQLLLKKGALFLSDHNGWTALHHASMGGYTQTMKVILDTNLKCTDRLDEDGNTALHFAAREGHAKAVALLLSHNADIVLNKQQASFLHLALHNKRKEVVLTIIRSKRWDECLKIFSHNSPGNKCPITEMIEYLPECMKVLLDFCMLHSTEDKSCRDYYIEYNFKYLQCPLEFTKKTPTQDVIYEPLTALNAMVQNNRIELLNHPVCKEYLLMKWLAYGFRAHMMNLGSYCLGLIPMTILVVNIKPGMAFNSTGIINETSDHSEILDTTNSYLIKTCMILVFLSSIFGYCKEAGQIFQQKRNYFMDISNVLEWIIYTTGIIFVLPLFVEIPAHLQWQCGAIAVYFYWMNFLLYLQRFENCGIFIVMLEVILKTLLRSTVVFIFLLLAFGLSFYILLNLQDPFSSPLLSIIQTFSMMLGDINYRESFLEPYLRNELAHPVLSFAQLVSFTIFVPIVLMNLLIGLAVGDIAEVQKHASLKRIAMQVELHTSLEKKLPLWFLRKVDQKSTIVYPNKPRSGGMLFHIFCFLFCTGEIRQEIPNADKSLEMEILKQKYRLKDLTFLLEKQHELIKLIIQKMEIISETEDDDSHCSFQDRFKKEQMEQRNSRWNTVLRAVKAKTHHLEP

In the case of “miR-711: mmu-miR-711: gggacccggggagagauguaag (SEQ ID NO: 5) (GGGACCCGGGGAGAGAUGUAAG; chemistry not given here)”, the “scratching after intradermal cheek injection” value in series [1] (0.01 and 0.1 mM) is recorded as “mild but significant scratching”; in series [1] (highest dose, 5 mM, 5 μL) it was 395.2±32.8 bouts per hour. In series [1] (Tlr7−/− mice versus WT), the “miR-711-induced pruritus in knockout mice” value was “unaltered”. The “miR-711-induced acute itch in knockout mice” value in series [1] (Trpa1−/− mice versus WT) is on record as “abrogated”. In addition, the “pain (wiping) after intradermal cheek injection” value in series [1] (all the concentrations tested) is given as “failed to evoke pain (wiping)”. Also, the “onset (latency) of pruritus” value in series [1] (compared with chloroquine (CQ) and histamine, first 60 sec) is “very rapid, with a shorter latency”. Besides, the “scratching (itch) after intradermal cheek injection” value was “evoked marked scratching” in series [1] (naive mice, 1 mM, 5 μL) and “able to evoke pruritus” in series [1] (naive mice, 1 mM, 5 μL, listed as mmu-miR-711). In addition, the “neurogenic inflammation in hind paws (Evans blue test)” value in series [2] was “failed to elicit neurogenic inflammation”. The “TG neurons responding (calcium)” value in series [3] is listed as 12.3%. In series [4] (bath application, miR-711 10 μM, AITC 50 μM, held at −60 mV), the “single-channel opening events, extracellular surface” value is given as “elicited single-channel opening events”. Moreover, in series [4] (miR-711 10 μM versus AITC 50 μM), the “duration of single channel opening (average open time)” value is “significantly shorter”. In addition, the single channel conductance result in series [4] (mmu-miR-711 versus AITC) is “not significant”.
Turning to `CCC(=N\O)/C(C)=C/c1ccc(F)cc1` [A967079, (1E,3E)-1-(4-Fluorophenyl)-2-methyl-1-pentene-3-one oxime], in series [4] (outside-out patch), the “block of miR-711-induced single channel activity” value is on record as “completely blocked”.
For `C=CCN=C=S` [AITC], in series [1] (setting [5]), the “scratching after intradermal cheek injection” value was “not scratching” and the “wiping after intradermal cheek injection” value is given as “induced wiping”. Also, in series [1] (setting [6]), the “itch after intradermal cheek injection” value is on record as “mild itch” and the “pain after intradermal cheek injection” value is listed as “no pain”. Moreover, in series [1] (naive mice, 1 mM, 5 μL), the “scratching (itch) after intradermal cheek injection” value was “induced both scratching and wiping”; the “wiping (pain) after intradermal cheek injection” value is “induced both scratching and wiping”. For the same molecule, in series [2], the “neurogenic inflammation in hind paws (Evans blue test)” value is recorded as “elicited robust neurogenic inflammation”. Moreover, in series [3], the “miR-711-responsive TG neurons that also responded” value was found to be 100% and the “TG neurons responding (calcium)” value is 32.4%.

Values taken from patent publication US20210283163A1, “COMPOSITIONS AND METHODS FOR THE TREATMENT OF ACUTE AND CHRONIC PRURITIS” (Duke University, priority 2018, published 2021).
